Data on ten compounds can be found in patent publication US20220112204A1, “SUBSTITUTED DIHYDROPYRANOPYRIMIDINE COMPOUNDS AS KRAS INHIBITORS” (ACCUTAR BIOTECHNOLOGY INC., priority 2020, published 2022).

In assay [1] the target is T1, KRAS-G12C mutant (Homo sapiens, UniProt P01116, G12C). The assay can be described thus: TR-FRET assay of SOS1-assisted KRAS GDP/GTP exchange. It counts as biochemical. How it is done:
GDP form of 6*His tagged KRAS-G12C was diluted to 40 nM and incubated with 8 nM LanthaScreen™ Elite Terbium-anti-HIS Antibody (Thermo, catalog number PV5863) in reaction buffer containing 20 mM Tris, pH 7.5, 100 mM NaCl, 1 mM DTT, 0.1% Tween20, 0.05% BSA, 2% DMSO, 1 mM MgCl2. After 1 hour-incubation at 4° C., proteins were placed in 384 well plate (PerkinElmer, PROXIPLATE-384 PLUS). Then compounds with different concentrations were added to the proteins. BODIPY labeled GTP (Thermo, catalog number G12411) and SOS-1 (or reaction buffer as control) were then added to reactions at 200 nM and 1 μM to trigger the exchange of GDP to BODIPY-GTP. TR-FRET emission signals were determined at 520 nm and 620 nm on a Envision® Multilabel Plate Reader (PerkinElmer) using a 337 nm laser as light source. All data were analyzed and plotted using Graph Pad Prism software (version 8.0.1). Raw TR-FRET data were converted to percentage of inhibition (relative to DMSO) using the following equations: […]
b) For a given test compound concentration X:
Signal (X)=Emission ratio (SOS-1 & GTP)—Emission ratio (buffer & GTP)
c) Percentage of inhibition at concentration X=[1−Signal(X)/Signal (DMSO)]*100%
The […] values were determined by nonlinear regression of plots of [inhibitor] vs. percentage of inhibition with variable slope. Table 4 summarizes inhibition of SOS1-assisted GDP/GTP exchanging activity of KRAS-G12C mutant with exemplary compounds of the present disclosure.
(In general: Time-resolved FRET reads energy transfer from a long-lived donor to a nearby acceptor.)

The test system of assay [2] is phospho-ERK1/2 (Thr202/Tyr204) in MIA PaCa-2 cell line. The assay can be described thus: pERK and ERK Western blot analysis, MIA PaCa-2. The note with it: Homo sapiens; MIA PaCa-2 cell line, 4 hours after incubation; read-out: 2D pERK IC50. It counts as cell-based. The method, then: MIA PaCa-2 (ATCC), NCI-H358 (ATCC), NCI-H23 (ATCC), SW837 and A549 (ATCC) cells were plated in 24-well plates at 2×10^5cells/well in RPMI growth medium containing 10% FBS and 1× Penicillin Streptomycin. They were then incubated at 37° C. overnight. The following day, the test compound was administered to the cells by using 1000× compound stock solution prepared in DMSO at various concentrations. After administration of the compound, the cells were then incubated at 37° C. for 4 hours. Upon completion, the cells were washed with PBS and protein was collected in Laemmli sample buffer (1×; VWR International). Proteins in cell lysate were separated by SDS-PAGE and transferred to Odyssey nitrocellulose membranes (Licor) with iblot® dry blotting transfer system (ThermoFisher). Nonspecific binding was blocked by incubating membranes with Intercept Blocking Buffer (Licor) for 1 hour at room temperature with gentle shaking. The membranes were then incubated overnight at 4° C. with primary antibodies rabbit anti-phospho p44/42 MAPK (Erk1/2) (1:2,000, Cell Signaling, 4370) and mouse anti-p44/42 MAPK (Erk1/2) (1:1,000, Cell Signaling, 4696) diluted in Intercept Blocking Buffer containing 0.1% Tween 20. After washing 3 times with TBS-T, the membranes were incubated with IRDye® 800CW goat anti-rabbit IgG (1:20,000, Licor) or IRDye® 680CW goat anti-mouse IgG (1:20,000, Licor) for 1 hour. After TBS-T washes, membranes were rinsed in TBS and scanned on Odyssey® CLx Imaging System (Licor). The bands were quantified using Image Studio™ Software (Licor).
In general terms: A western blot detects proteins with antibodies after separation by electrophoresis.

The next assay has as its system MIA PaCa-2 cell line. Nature of the assay: 3D cell growth assay (CellTiter-Glo), MIA PaCa-2. It counts as cell-based. As to conditions: Homo sapiens, MIA PaCa-2, 144 h, MIA PaCa-2 cell line, 6 days, 3D cell culture; read-out: 3D growth inhibition GI50. The method, then: MIA PaCa-2 (ATCC), NCI-H358 (ATCC), NCI-H23 (ATCC), SW837 and A549 (ATCC) cells were plated in round bottom 96-well spheroid microplates (Corning, 4520) at 3000 cells/well in 90 ul of RPMI growth medium containing 10% FBS and 1% Penicillin Streptomycin. Cells were incubated at 37° C. overnight. The following day, the test compound was administered to the cells by using 10× compound stock solution prepared in growth medium at various concentrations. After administration of the compound, cells were then incubated at 37° C. for 6 days. Before CellTiter-Glo assay, the plates were equilibrated at room temperature for approximately 10 minutes. 100 ul of CellTiter-Glo® Reagent (Promega, G7573) was added to each well. The plates were then incubated at room temperature for 10 minutes and luminescence was recorded by EnSpire plate reader (PerkinElmer). Table 6 illustrates growth inhibition (G150) by exemplary compounds 1-10 of the present disclosure in a MIA PaCa-2 cell line 6 days after administration in 3D cell culture. A: >0.1 nM and <1 nM; B: >=1 nM and <10 nM; C: >=10 nM and <100 nM; D: >100 nM.
For orientation: ATP-based viability assays read luminescence as a measure of living cells.

For assay [3], the target named is T1, KRAS-G12C mutant. The assay can be described thus: Gel shift assay (SDS-PAGE) for covalent modification of KRAS G12C. It is filed as binding. The note with it: 0.5 μM compound, 1 μM GDP-bound KRAS G12C, 25° C., 5 minutes, shift indicative of covalent cysteine conjugation. The method, then:
0.5 μM compounds were incubated with 1 μM GDP-bound untagged KRAS (G12C or wild type) proteins at 25° C. for 5 minutes in 40 μl reaction buffer (50 mM Tris, pH 7.5, 100 mM NaCl, 1 mM MgCl2, 1 mM DTT). The reactions were quenched with 10 μI SDS-PAGE sample loading buffer (250 mM Tris-HCl, pH 6.8, 10% SDS, 0.5% bromophenol blue, 50% glycerol and 50 mM DTT) and then analyzed via SDS-PAGE using 4%-20% gradient polyacrylamide gel followed by Coomassie blue stain.
FIG. 1 illustrates mobility change of KRAS-G12C mutant or wild type proteins on SDS-PAGE after 5 minutes of coincubation at 25° C. with exemplary compounds of the present disclosure, indicative of covalent cysteine conjugation.
Table 3 summarizes molecular weight shift of KRAS-G12C mutant on SDS-PAGE after 5 mins of coincubation at 25° C. with exemplary compounds of the present disclosure, indicative of covalent cysteine conjugation.

Broadly, the IC50 is the concentration at which inhibition is half-maximal. As usually defined, the GI50 is the concentration at which growth is held to half of that of the control. In the case of `C=CC(=O)N1CCN(c2nc(OC[C@@H]3CCCN3C)nc3c2CO[C@H](c2cccc4ccccc24)C3)C[C@@H]1CC#N` [Compound 4, 2-((S)-1-acryloyl-4-((S)-2-(((S)-1-methylpyrrolidin-2-yl)methoxy)-7-(naphthalen-1-yl)-7,8-dihydro-5H-pyrano[4,3-d]pyrimidin-4-yl)piperazin-2-yl)acetonitrile], the IC50 against KRAS-G12C mutant [1] is 49 nM; in assay [2] it was 1 to 10 nM. Also, in the assay with MIA PaCa-2 cell line, the 50% growth inhibitory concentration (GI50) was 1 to 10 nM.
Turning to `C=C(F)C(=O)N1CCN(c2nc(OCC34CCCN3CCC4)nc3c2[C@H](C)O[C@H](c2cccc4c2CCCC4)C3)C[C@@H]1CC#N` [Compound 61, 2-((S)-1-(2-fluoroacryloyl)-4-((5S,7S)-5-methyl-2-((tetrahydro-1H-pyrrolizin-7a(5H)-yl)methoxy)-7-(5,6,7,8-tetrahydronaphthalen-1-yl)-7,8-dihydro-5H-pyrano[4,3-d]pyrimidin-4-yl)piperazin-2-yl)acetonitrile], the “KRAS-G12C molecular weight shift” value on KRAS-G12C mutant [3] is “Yes”. For the same compound, the values for the IC50 (at KRAS-G12C mutant [1]; in assay [2]) were 78 nM and 10 to 100 nM, respectively. For the same compound, the GI50 with MIA PaCa-2 cell line fell in the range of 10 to 100 nM.
In the case of `C=C(F)C(=O)N1CCN(c2nc(OCC34CCCN3CCC4)nc3c2CO[C@H](c2cccc4cccc(C)c24)C3)C[C@@H]1CC#N` (single isomer, unassigned) [Compound 58], the “KRAS-G12C molecular weight shift” value at KRAS-G12C mutant [3] was “Yes”. The values for the IC50 (at KRAS-G12C mutant [1]; in assay [2]) were 19 nM and 10 to 100 nM, respectively. Besides, the GI50 in the assay on MIA PaCa-2 cell line lay within 1 to 10 nM.
On the same counts, the results for `C=C(F)C(=O)N1CCN(c2nc(OCC34CCCN3CCC4)nc3c2COC(c2cccc4cccc(Cl)c24)C3)C[C@@H]1CC#N` (stereo partly drawn) [Compound 53, 2-((2S)-4-(7-(8-chloronaphthalen-1-yl)-2-((tetrahydro-1H-pyrrolizin-7a(5H)-yl)methoxy)-7,8-dihydro-5H-pyrano[4,3-d]pyrimidin-4-yl)-1-(2-fluoroacryloyl)piperazin-2-yl)acetonitrile] are “Yes”, 45 nM, 1 to 10 nM and 1 to 10 nM.
On the same counts, the results for `C=C(F)C(=O)N1CCN(c2nc(OCC34CCCN3CCC4)nc3c2CO[C@H](c2cccc4c2CCCC4)C3)C[C@@H]1CC#N` [Compound 69, 2-((S)-1-(2-fluoroacryloyl)-4-((S)-2-((tetrahydro-1H-pyrrolizin-7a(5H)-yl)methoxy)-7-(5,6,7,8-tetrahydronaphthalen-1-yl)-7,8-dihydro-5H-pyrano[4,3-d]pyrimidin-4-yl)piperazin-2-yl)acetonitrile] are “Yes”, 20 nM, 10 to 100 nM and 1 to 10 nM.
As to `C=CC(=O)N1CCN(c2nc(OC[C@@H]3C[C@@H](F)CN3C)nc3c2COC(c2cccc4ccccc24)C3)C[C@@H]1CC#N` (stereo partly drawn) [Compound 8, 2-((2S)-1-acryloyl-4-(2-(((2S,4R)-4-fluoro-1-methylpyrrolidin-2-yl)methoxy)-7-(naphthalen-1-yl)-7,8-dihydro-5H-pyrano[4,3-d]pyrimidin-4-yl)piperazin-2-yl)acetonitrile], the IC50 against KRAS-G12C mutant [1] was 238 nM; in assay [2] it was 1 to 10 nM. For the same compound, the GI50 with MIA PaCa-2 cell line is 10 to 100 nM.
On the same counts, the results for `C=CC(=O)N1CCN(c2nc(OC[C@@H]3CCCN3C)nc3c2COC(c2cccc4ccccc24)C3)C[C@@H]1CC#N` (stereo partly drawn) [Compound 2, 2-((2S)-1-acryloyl-4-(2-(((S)-1-methylpyrrolidin-2-yl)methoxy)-7-(naphthalen-1-yl)-7,8-dihydro-5H-pyrano[4,3-d]pyrimidin-4-yl)piperazin-2-yl)acetonitrile] are 77 nM, 10 to 100 nM and 1 to 10 nM.
For `C=CC(=O)N1CCN(c2nc(OC[C@@H]3CCCN3C)nc3c2CO[C@H](c2cccc4cccc(Cl)c24)C3)C[C@@H]1CC#N` [Compound 7, 2-((S)-1-acryloyl-4-((S)-7-(8-chloronaphthalen-1-yl)-2-(((S)-1-methylpyrrolidin-2-yl)methoxy)-7,8-dihydro-5H-pyrano[4,3-d]pyrimidin-4-yl)piperazin-2-yl)acetonitrile], in that order: 19 nM, 0.1 to 1 nM and 1 to 10 nM.
On to `C=CC(=O)N1CCN(c2nc(OC[C@@H]3C[C@H](F)CN3C)nc3c2CO[C@H](c2cccc4ccccc24)C3)C[C@@H]1CC#N` [Compound 9, 2-((S)-1-acryloyl-4-((S)-2-(((2S,4S)-4-fluoro-1-methylpyrrolidin-2-yl)methoxy)-7-(naphthalen-1-yl)-7,8-dihydro-5H-pyrano[4,3-d]pyrimidin-4-yl)piperazin-2-yl)acetonitrile], for which the IC50 at KRAS-G12C mutant [1] was 1 nM; in assay [2], 10 to 100 nM. In addition, the concentration for 50% growth inhibition (GI50) with MIA PaCa-2 cell line was 10 to 100 nM.
`C=C(F)C(=O)N1CCN(c2nc(OCC34CCCN3CCC4)nc3c2COC(c2cccc4cccc(C)c24)C3)C[C@@H]1CC#N` (stereo partly drawn) [Compound 56, 2-((2S)-1-(2-fluoroacryloyl)-4-(7-(8-methylnaphthalen-1-yl)-2-((tetrahydro-1H-pyrrolizin-7a(5H)-yl)methoxy)-7,8-dihydro-5H-pyrano[4,3-d]pyrimidin-4-yl)piperazin-2-yl)acetonitrile]: at KRAS-G12C mutant [3], the “KRAS-G12C molecular weight shift” value is recorded as “Yes”. The IC50 is 70 nM against KRAS-G12C mutant [1] and 10 to 100 nM in assay [2]. The GI50 in the assay on MIA PaCa-2 cell line fell in the range of 1 to 10 nM.
